T1: PR (Homo sapiens, UniProt P06401)
T1 sequence (P06401 1-933): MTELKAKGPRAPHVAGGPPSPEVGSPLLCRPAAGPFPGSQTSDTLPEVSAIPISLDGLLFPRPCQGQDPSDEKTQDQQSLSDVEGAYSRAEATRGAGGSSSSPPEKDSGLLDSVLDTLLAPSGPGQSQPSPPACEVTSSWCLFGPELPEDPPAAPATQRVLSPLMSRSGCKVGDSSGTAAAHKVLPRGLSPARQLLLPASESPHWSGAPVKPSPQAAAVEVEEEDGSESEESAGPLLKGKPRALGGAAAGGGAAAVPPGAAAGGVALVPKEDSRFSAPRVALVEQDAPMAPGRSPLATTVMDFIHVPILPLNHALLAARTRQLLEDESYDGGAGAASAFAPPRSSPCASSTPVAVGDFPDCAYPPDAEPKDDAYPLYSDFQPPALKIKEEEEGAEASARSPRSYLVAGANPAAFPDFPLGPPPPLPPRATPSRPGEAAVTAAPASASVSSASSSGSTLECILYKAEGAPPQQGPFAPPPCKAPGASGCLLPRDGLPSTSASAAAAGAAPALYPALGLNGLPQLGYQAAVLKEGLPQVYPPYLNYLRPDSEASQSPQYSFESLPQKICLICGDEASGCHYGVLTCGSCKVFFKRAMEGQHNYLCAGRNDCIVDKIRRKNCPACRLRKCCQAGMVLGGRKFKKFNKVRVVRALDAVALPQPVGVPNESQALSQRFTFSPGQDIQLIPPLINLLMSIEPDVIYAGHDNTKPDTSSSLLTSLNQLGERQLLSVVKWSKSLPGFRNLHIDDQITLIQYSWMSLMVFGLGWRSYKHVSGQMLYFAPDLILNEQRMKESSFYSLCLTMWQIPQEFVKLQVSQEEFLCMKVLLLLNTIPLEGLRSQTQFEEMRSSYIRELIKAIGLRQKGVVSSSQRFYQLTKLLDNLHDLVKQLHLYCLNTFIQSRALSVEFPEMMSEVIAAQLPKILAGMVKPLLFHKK

T2: GR LBD (521-777) F602S polypeptide (human glucocorticoid receptor alpha ligand binding domain) (human, UniProt P04150 521-777)
T2 construct: Expressed in E. coli from plasmid 6xHisGS-TGR(521-777) F602S pET24; The fusion tag was cut off with thrombin before complex formation and crystallization; Residue numbers in the text follow full-length human GR; In the crystal, two LBD monomers form a symmetric dimer; also called GRα LBD; GR LBD F602S
T2 sequence: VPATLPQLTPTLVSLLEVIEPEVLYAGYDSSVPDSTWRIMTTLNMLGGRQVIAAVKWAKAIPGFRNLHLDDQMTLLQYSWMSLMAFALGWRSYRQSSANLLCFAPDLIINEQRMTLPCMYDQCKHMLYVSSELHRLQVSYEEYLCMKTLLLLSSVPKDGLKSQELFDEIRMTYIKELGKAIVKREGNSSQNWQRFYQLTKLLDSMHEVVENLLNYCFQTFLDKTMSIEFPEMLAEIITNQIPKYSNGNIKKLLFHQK


What was measured:
PR = molecular target: T1, PR; conditions: known, potent, non-steroidal agonist; cited from earlier work
[1] = molecular target: T2, GR LBD (521-777) F602S polypeptide …; test: X-ray co-crystal structure, 2.6 Å

| Molecule | binding affinity for PR (in words) (PR) | binding result [1] |
| --- | --- | --- |
| CC1CCC(c2ccc(Cl)c(C(F)(F)F)c2)=NN1S(=O)(=O)c1ccc(I)cc1 (centres unmarked) [RWJ-60130, 3-(4-chloro-3-trifluoromethylphenyl)-1-(4iodobenzensulfonyl)-6-methyl-1,4,5,6-tetrahydropyridazine] | high-affinity | – |
| KENALLRYLLDKDD [TIF2 peptide (residues 740-753 of the human TIF2 protein), KENALLRYLLDKDD] | – | binds |

— patent US20070020684A1, “Structure of a glucocorticoid receptor ligand binding domain comprising an expanded binding pocket and methods employing same” (priority 2002, published 2007)
